Measurements taken from patent US8507411B2, “Neoglycorandomization and digitoxin analogs” (priority 2004, dated 2013).
Read-outs that look alike come from different tables or passages of the source.

What was measured:
Du145 = experiment: High-throughput calcein AM cytotoxicity assay, Du145; assay type: cell-based, human; conditions: Du145 cells
Description: (§1) Standard errors are depicted with error bars.

A549 = experiment: High-throughput calcein AM cytotoxicity assay, A549; assay type: cell-based, human; conditions: A549 cells
Description: as §1

SK-OV-3 = experiment: cells; assay type: cell-based, human; conditions: SK-OV-3 cells
Description: (§2) In the assay, live cells were distinguished by the presence of a ubiquitous intracellular enzymatic activity which converts the non-fluorescent cell-permeable molecule calcein AM to the intensely fluorescent molecule calcein, which is retained within live cells. The IC50 value for each library member represents at least six replicates of dose-response experiments conducted over five concentrations using two-fold dilutions. […] Standard errors are depicted with error bars. Numerical values and corresponding error values can be found in Table 4. Du145: […]; MCF7: human breast carcinoma; HCT-116: human colon carcinoma, Hep3B: human liver carcinoma; SF-268: human CNS glioblastoma; SK-OV-3: human ovary adenocarcinoma; NCI-H460: human lung carcinoma; A549: human lung adenocarcinoma; NCI/ADR-RES: human breast carcinoma; NmuMG: mouse mammary normal epithelial.
(§3) Cell Culture: All cell lines except NmuMG were maintained in RPMI 1640 medium from InVitrogen (Cat No. 11875-085) supplemented with 10% w/v fetal bovine serum (FBS) from ICN (Cat No. 2916154) and penicillin-streptomycin (PS) (100 U/mL and 100 μg/mL) from InVitrogen (Cat No. 15140-122). NmuMG cells were maintained in DMEM medium from InVitrogen (Cat No. 11965-084) supplemented with 10% w/v fetal bovine serum (FBS) from ICN (Cat No. 2916154), 10 μg/ml insulin (InVitrogen Cat No 12585-014), and penicillin-streptomycin (PS) (100 U/mL and 100 μg/mL) from InVitrogen (Cat No. 15140-122). Cells were harvested by trypsinization using 0.25% w/v trypsin and 0.1% w/v EDTA from InVitrogen (Cat No. 15-050-057) and then counted in a hemocytometer in duplicate with better than 10% agreement in field counts. Cells were plated at a cell density of 10,000-15,000 cells/well of each Corning Costar 96-well black tissue culture treated microtiter plate (Fisher Cat No. 07-200-627). Cells were grown for 1 h at 37° C., with 5% CO2 in a humidified incubator to allow cell attachment to occur before compound addition.
(§4) Library Member Handling and Preparation for Cytotoxicity Assays: Library members were stored at −20° C. under dessicating conditions before the assay. Library member stocks (100×) were prepared in Corning Costar polypropylene 96-well V-bottom polypropylene microtiter plates (Fisher Cat No. 07-200-695). Five serial 1:2 dilutions were made with anhydrous DMSO at 100× the final concentration used in the assay.
(§5) Library Member Addition: The library member-containing plates were diluted 1:10 with complete cell culture media. The 10× stocks (10 μL) were added to the attached cells using a Biomek FX liquid handler (Beckman-Coulter). Library member stocks (10 μL) were added to 90 μL of cells in each plate to insure full mixing of stocks with culture media using a Beckman FX liquid handler with 96-well head.
(§6) Determination of Cytotoxicity: Cells were incubated with the library members for 72 h before fluorescence reading. Test plates were removed from the incubator and washed 1× in sterile PBS to remove serum containing calcium esterases. Calcein AM reagent (30 μL, […]) was added and the cells were incubated for 30 min at 37° C. Plates were read for emission using a fluorescein filter (excitation 485 nm, emission 535 nm).
(§7) IC50 Calculation: For each library member, at least six dose response experiments were conducted. […] To calculate IC50, percent inhibitions were plotted as a function of log [concentration] and then fit to a four-parameter logistic model that allowed for a variable Hill slope using XLfit 4.1.
(§8) Cytotoxicity Assays. All cell lines except NmuMG were maintained in RPMI 1640 medium supplemented with 10% w/v fetal bovine serum (FBS) and penicillin-streptomycin (PS) (100 U/mL and 100 μg/mL).

SF-268 = experiment: cells; assay type: cell-based, human; conditions: SF-268 cells
Description: as §2, §3, §4, §5, §6, §7, §8

NCI/ADR-RES = experiment: cells; assay type: cell-based, human; conditions: NCI/ADR-RES cells
Description: as §2, §3, §4, §5, §6, §7, §8

HCT-116 = experiment: High-throughput calcein AM cytotoxicity assay, HCT-116; assay type: cell-based, human; conditions: HCT-116 cells
Description: as §1

NmuMG = experiment: cells; assay type: cell-based, mouse
Description: as §2, §3, §4, §5, §6, §7, §8

Hep3B = experiment: High-throughput calcein AM cytotoxicity assay, Hep3B; assay type: cell-based, human; conditions: Hep 3B cells
Description: as §1

MCF7 = experiment: High-throughput calcein AM cytotoxicity assay, MCF7; assay type: cell-based, human; conditions: MCF7 cells
Description: as §1

NCI-H460 = experiment: High-throughput calcein AM cytotoxicity assay, NCI-H460; assay type: cell-based, human; conditions: NCI-H460 cells
Description: as §1

[1] = NmuMG mouse mammary normal epithelial control line, read-out: IC50, NmuMG
[2] = NmuMG cells (mouse mammary normal epithelial control line), read-out: IC50

Compound	IC50 (Du145; read-out: IC50, Du145)	IC50 (A549; read-out: IC50, A549)	IC50 (SK-OV-3; read-out: IC50, SK-OV-3)	IC50 (SF-268; read-out: IC50, SF-268)	IC50 (NCI/ADR-RES; read-out: IC50, NCI/ADR-RES)	IC50 (HCT-116; read-out: IC50, HCT-116)	IC50 (NmuMG; [1])	IC50 (Hep3B; read-out: IC50, Hep 3B)	IC50 (MCF7; read-out: IC50, MCF7)	IC50 (NCI-H460; read-out: IC50, NCI-H460)	IC50 (NmuMG; [2])	IC50 (Du145; read-out: IC50)	IC50 (A549; read-out: IC50)	IC50 (SK-OV-3; read-out: IC50)	IC50 (NCI/ADR-RES; read-out: IC50)	IC50 (Hep3B; read-out: IC50)	IC50 (SF-268; read-out: IC50)	IC50 (HCT-116; read-out: IC50)	IC50 (MCF7; read-out: IC50)	IC50 (NCI-H460; read-out: IC50)
CON([C@H]1CC[C@@]2(C)[C@H](CC[C@@H]3[C@@H]2CC[C@]2(C)[C@@H](C4=CC(=O)OC4)CC[C@]32O)C1)[C@H]1O[C@@H](CO)[C@@H](O)[C@@H](O)[C@@H]1O [21β, L-galactoside]	2.1 µM	0.9 µM	1.6 µM	1.4 µM	1.6 µM	2.1 µM	1 µM	1.3 µM	1.8 µM	2.6 µM	–	–	–	–	–	–	–	–	–	–
CON(C1CCC2(C)C(CCC3C2CCC2(C)C(C4=CC(=O)OC4)CCC32O)C1)C1OC(CO)C(O)C(O)C1O [17α, L-alloside]	> 25 µM	> 25 µM	> 25 µM	> 25 µM	> 25 µM	> 25 µM	> 25 µM	> 25 µM	> 25 µM	> 25 µM	–	–	–	–	–	–	–	–	–	–
CON(C1CCC2(C)C(CCC3C2CCC2(C)C(C4=CC(=O)OC4)CCC32O)C1)C1OCC(O)C(O)C1O [24α, D-xyloside]	> 25 µM	> 25 µM	–	–	–	> 25 µM	–	> 25 µM	> 25 µM	> 25 µM	–	–	–	–	–	–	–	–	–	–
CON(C1CCC2(C)C(CCC3C2CCC2(C)C(C4=CC(=O)OC4)CCC32O)C1)C1OC(CO)C(O)C(O)C1O [19α, L-altroside]	> 25 µM	> 25 µM	> 25 µM	> 25 µM	> 25 µM	> 25 µM	> 25 µM	> 25 µM	> 25 µM	> 25 µM	–	–	–	–	–	–	–	–	–	–
CON([C@H]1CC[C@@]2(C)[C@H](CC[C@@H]3[C@@H]2CC[C@]2(C)[C@@H](C4=CC(=O)OC4)CC[C@]32O)C1)[C@@H]1O[C@H](CO)[C@@H](O)C[C@H]1O [10β, 3-deoxy-D-glucoside]	0.8 µM	1.6 µM	2.5 µM	0.77 µM	0.44 µM	1.8 µM	0.94 µM	1.7 µM	0.46 µM	1.6 µM	–	–	–	–	–	–	–	–	–	–
CON([C@H]1CC[C@@]2(C)[C@H](CC[C@@H]3[C@@H]2CC[C@]2(C)[C@@H](C4=CC(=O)OC4)CC[C@]32O)C1)[C@H]1C[C@@H](O)[C@@H](O)[C@@H](CO)O1 [9β, 2-deoxy-D-galactoside]	7 µM	1.3 µM	4 µM	8 µM	0.9 µM	10 µM	> 25 µM	3.6 µM	5.1 µM	2 µM	–	–	–	–	–	–	–	–	–	–
CON(C1CCC2(C)C(CCC3C2CCC2(C)C(C4=CC(=O)OC4)CCC32O)C1)C1OC(CO)C(O)C(O)C1O [29α, D-idoside]	> 25 µM	> 25 µM	> 25 µM	> 25 µM	> 25 µM	> 25 µM	–	> 25 µM	> 25 µM	> 25 µM	> 25 µM	–	–	–	–	–	–	–	–	–
6-keto-D-galactoside [31β]	1.5 µM	2.3 µM	2.9 µM	8 µM	1 µM	3.1 µM	> 25 µM	3.1 µM	9 µM	2.4 µM	–	–	–	–	–	–	–	–	–	–
CON([C@H]1CC[C@@]2(C)[C@H](CC[C@@H]3[C@@H]2CC[C@]2(C)[C@@H](C4=CC(=O)OC4)CC[C@]32O)C1)[C@H]1O[C@@H](CO)[C@@H](O)[C@H](O)[C@H]1O [28β, L-idoside]	1.9 µM	1.14 µM	2.4 µM	2.1 µM	0.61 µM	3.2 µM	1.8 µM	1 µM	2.6 µM	1.3 µM	–	–	–	–	–	–	–	–	–	–
CON(C1CCC2(C)C(CCC3C2CCC2(C)C(C4=CC(=O)OC4)CCC32O)C1)C1OC(CO)C(OC2OC(CO)C(O)C(O)C2O)C(O)C1O (stereo not drawn) [37α, maltoside]	–	–	–	–	–	–	–	–	–	–	> 25 µM	> 25 µM	> 25 µM	> 25 µM	> 25 µM	> 25 µM	–	–	–	–
CON(C1CCC2(C)C(CCC3C2CCC2(C)C(C4=CC(=O)OC4)CCC32O)C1)C1CC(C)(O)C(O)C(C)O1 [30α, L-mycaroside]	> 25 µM	> 25 µM	> 25 µM	> 25 µM	> 25 µM	> 25 µM	–	> 25 µM	> 25 µM	> 25 µM	> 25 µM	–	–	–	–	–	–	–	–	–
6-keto-D-galactoside [31α]	> 25 µM	> 25 µM	> 25 µM	> 25 µM	> 25 µM	> 25 µM	–	> 25 µM	> 25 µM	> 25 µM	> 25 µM	–	–	–	–	–	–	–	–	–
CON([C@H]1CC[C@@]2(C)[C@H](CC[C@@H]3[C@@H]2CC[C@]2(C)[C@@H](C4=CC(=O)OC4)CC[C@]32O)C1)[C@@H]1O[C@H](CO)[C@H](O)[C@H](O)[C@H]1O [22β, D-galactoside]	1.5 µM	0.97 µM	1.5 µM	1.2 µM	0.8 µM	1.8 µM	1.5 µM	0.6 µM	3 µM	1.6 µM	–	–	–	–	–	–	–	–	–	–
CON(C1CCC2(C)C(CCC3C2CCC2(C)C(C4=CC(=O)OC4)CCC32O)C1)C1OCC(O)C(O)C1O [23α, L-xyloside]	> 25 µM	> 25 µM	–	–	–	> 25 µM	–	> 25 µM	> 25 µM	> 25 µM	–	–	–	–	–	–	–	–	–	–
6-deoxy-6-azido-D-mannoside [41α]	–	–	–	–	–	–	–	–	–	–	> 25 µM	> 25 µM	> 25 µM	> 25 µM	> 25 µM	> 25 µM	> 25 µM	> 25 µM	> 25 µM	> 25 µM
CON(C1CCC2(C)C(CCC3C2CCC2(C)C(C4=CC(=O)OC4)CCC32O)C1)C1OC(CO)C(OC2OC(CO)C(O)C(O)C2O)C(O)C1O (stereo not drawn) [36β, lactoside]	–	24 µM	19 µM	> 25 µM	13 µM	> 25 µM	> 25 µM	26 µM	> 25 µM	> 25 µM	–	–	–	–	–	–	–	–	–	–
CON(C1CCC2(C)C(CCC3C2CCC2(C)C(C4=CC(=O)OC4)CCC32O)C1)C1OC(CO)C(OC2OC(CO)C(O)C(O)C2O)C(O)C1O (stereo not drawn) [37β, maltoside]	4.4 µM	4.4 µM	5 µM	6 µM	4.4 µM	24 µM	–	7 µM	> 25 µM	6.1 µM	–	–	–	–	–	–	–	–	–	–
